Source: patent US10912301B2, “Herbicide combinations comprising L-glufosinate and indaziflam” (BASF SE, priority 2015, dated 2021)
Read-outs that look alike come from different tables or passages of the source.

Assays:
[1] = system: Amaranthus retroflexus (AMARE); assay: Greenhouse pot trial, single post-emergence treatment, herbicidal activity rating; assay type: in vivo; settings: BBCH growth stage 11-12, 12 g/ha indaziflam
Experimental: (§1) In separate pots, biological trials were conducted in the greenhouse under identical conditions (apart from the treatment with the different products P1, P2 and P3 mentioned above). Each pot contained the same soil and the same amount of seeds of each of the following weeds (two monocotyledonous and two dicotyledonous harmful plant species (weed species)):
(§2) The Tables 1 to 6 reflect the observations after certain periods of time, indicated in days (referred to as DAA=days after application) after start of treatment with/application of the respective product P1, P2 or P3 mentioned above, each in the amounts indicated below.
(§3) Indaziflam was used in an amount of 12 g/ha.

[2] = system: Lolium multiflorum (LOLMU); assay: as above; assay type: in vivo; settings: BBCH growth stage 11-12, 12 g/ha indaziflam
Experimental: as §1, §2, §3

[3] = system: Stellaria media (STEME); assay: as above; assay type: in vivo; settings: BBCH growth stage 11-12, 12 g/ha indaziflam
Experimental: as §1, §2, §3

[4] = system: Poa annua (POAAN); assay: as above; assay type: in vivo; settings: BBCH growth stage 11-12, 12 g/ha indaziflam
Experimental: as §1, §2, §3

[5] = system: monocotyledonous and dicotyledonous harmful plant species; assay: Post-emergence efficacy of indaziflam alone; assay type: in vivo; settings: product containing 4 g/L of indaziflam, dose rate 12 g/ha
[6] = system: monocotyledonous and dicotyledonous harmful plant species; settings: stated as known; cited from earlier work

Cc1ccc2c(c1)[C@H](Nc1nc(N)nc([C@@H](C)F)n1)[C@@H](C)C2 (mixture of isomers) [indaziflam, N^2-[(1R,2S)-2,3-dihydro-2,6-dimethyl-1H-inden-1-yl]-6-[(1RS)-1-fluoroethyl]-1,3,5-triazine-2,4-diamine]
Ratings of herbicidal activity: Regrowth [1]: very weak herbicidal effect starting on day 7 after treatment | Ratings of herbicidal activity: Regrowth [2]: no herbicidal effect | Ratings of herbicidal activity: Regrowth [3]: no herbicidal effect | Ratings of herbicidal activity: Regrowth [4]: no herbicidal effect | post-emergence efficacy [5]: only very limited post-emergence efficacy | post-emergence efficacy [6]: insufficient post-emergence efficacy
